Measurements published in patent US12678515B2, “Lipids and lipid nanoparticle formulations for delivery of nucleic acids” (Acuitas Therapeutics, Inc., priority 2015, dated 2026).

Test system: luciferase expression in the liver
Test: In vivo luciferase mRNA expression rodent model (lipid nanoparticle formulations of cationic lipids)
Set-up: species or system mice
Settings: luciferase expression in liver 4 hours after tail vein injection; LNP 50% cationic lipid/10% DSPC/38.5% cholesterol/1.5% PEG-DMA; MC3 activity=1
Description: Cationic lipid (MC3), DSPC, cholesterol and PEG-lipid were solubilized in ethanol at a molar ratio of 50:10:38.5:1.5. Lipid nanoparticles (LNP) were prepared at a total lipid to mRNA weight ratio of approximately 10:1 to 30:1. Briefly, the mRNA was diluted to 0.2 mg/mL in 10 to 50 mM citrate buffer, pH 4. Syringe pumps were used to mix the ethanolic lipid solution with the mRNA aqueous solution at a ratio of about 1:5 to 1:3 (vol/vol) with total flow rates above 15 mL/min. The ethanol was then removed and the external buffer replaced with PBS by dialysis. Finally, the lipid nanoparticles were filtered through a 0.2 μm pore sterile filter. Lipid nanoparticle particle size was approximately 55-95 nm diameter, and in some instances approximately 70-90 nm diameter as determined by quasi-elastic light scattering using a Malvern Zetasizer Nano ZS (Malvern, UK) or by using a Nicomp 370 submicron particle sizer (Santa Barbara, CA).
Studies were performed in 6-8 week old female C57BL/6 mice (Charles River) 8-10 week old CD-1 (Harlan) mice (Charles River) according to guidelines established by an institutional animal care committee (ACC) and the Canadian Council on Animal Care (CCAC). Varying doses of mRNA-lipid nanoparticle were systemically administered by tail vein injection and animals euthanized at specific time points (1, 2, 4, 8 and 24 hrs) post-administration. Liver and spleen were collected in pre-weighed tubes, weights determined, immediately snap frozen in liquid nitrogen and stored at −80° C. until processing for analysis.
For liver, approximately 50 mg was dissected for analyses in a 2 mL FastPrep tubes (MP Biomedicals, Solon OH). ¼″ ceramic sphere (MP Biomedicals) was added to each tube and 500 μL of Glo Lysis Buffer—GLB (Promega, Madison WI) equilibrated to room temperature was added to liver tissue. Liver tissues were homogenized with the FastPrep24 instrument (MP Biomedicals) at 2×6.0 m/s for 15 seconds. Homogenate was incubated at room temperature for 5 minutes prior to a 1:4 dilution in GLB and assessed using SteadyGlo Luciferase assay system (Promega). Specifically, 50 μL of diluted tissue homogenate was reacted with 50 μL of SteadyGlo substrate, shaken for 10 seconds followed by 5 minute incubation and then quantitated using a CentroXS^3 LB 960 luminometer (Berthold Technologies, Germany). The amount of protein assayed was determined by using the BCA protein assay kit (Pierce, Rockford IL). Relative luminescence units (RLU) were then normalized to total μg protein assayed. To convert RLU to ng luciferase a standard curve was generated with QuantiLum Recombinant Luciferase (Promega). Based on the data provided in FIG. 1, the four-hour time point was chosen for efficacy evaluation of the lipid formulations (see Example 3). […]

Structure (SMILES) | Activity Relative to MC3
CCCCCCCCC(CCCCCC)C(=O)OCCCCCCCCCC(CCCCCCCCCOC(=O)C(CCCCCC)CCCCCCCC)OC(=O)CCCN(C)C (stereo not shown) [Compound 1, 10-{[4′-(dimethylamino)butanoyl]oxy}-19-[(2-hexyldecanoyl)oxy]nonadecyl 2-hexyldecanoate] | ~2
CCCCCCCCC(CCCCCC)COC(=O)CCCCCCCCCCCC(CCCCCCCCCCCC(=O)OCC(CCCCCC)CCCCCCCC)OC(=O)CCCN(C)C (stereo not shown) [Compound 2, 1,25-di-(2′-hexyldecyl)13-{[4-(dimethylamino)butanoyl]oxy}pentacosanedioate] | ~0.75
CCCCCCCCC(CCCCCC)C(=O)OCCCCCCCCCC(CCCCCCCCCOC(=O)C(CCCCCC)CCCCCCCC)OC(=O)CCCCN(C)C (stereo not shown) [Compound 3, 10-{[5-(dimethylamino)pentanoyl]oxy}-19-[(2-hexyldecanoyl)oxy]nonadecyl 2-hexyldecanoate] | ~8
CCCCC/C=C\C/C=C\CCCCCCCCC(CCCCCCCC/C=C\C/C=C\CCCCC)OC(=O)CCCN(C)C [MC3, reference compound] | 1
